Results as given in PubChem BioAssay (NCI).
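Step 1: Grow cells in 96-well plates. Step 2: Expose to compound for 48 hours at 5 concentrations. Step 3: Interpolate endpoints linearly; if unreached, use highest concentration. GI50 marks 50% less growth. TGI: total growth inhibition.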

Columns and labels:
Assay in all cases: inhibition of tumour cell growth, NCI panel, 48 h
IGROV1 ovarian = test system: IGROV1 ovarian
NCI-H460 lung = test system: NCI-H460 lung
OVCAR-3 ovarian = test system: OVCAR-3 ovarian
SK-MEL-28 melanoma = test system: SK-MEL-28 melanoma
SK-OV-3 ovarian = test system: SK-OV-3 ovarian
SNB-75 CNS = test system: SNB-75 CNS
T-47D breast = test system: T-47D breast
UO-31 renal = test system: UO-31 renal
HCC-2998 colon = test system: HCC-2998 colon
U251 CNS = test system: U251 CNS

| Structure (SMILES) | TGI (IGROV1 ovarian) [µM] | TGI (NCI-H460 lung) [µM] | TGI (OVCAR-3 ovarian) [µM] | TGI (SK-MEL-28 melanoma) [µM] | TGI (SK-OV-3 ovarian) [µM] | TGI (SNB-75 CNS) [µM] | TGI (T-47D breast) [µM] | TGI (UO-31 renal) [µM] | TGI (HCC-2998 colon) [µM] | TGI (U251 CNS) [µM] | GI50 (OVCAR-3 ovarian) [µM] | GI50 (SK-OV-3 ovarian) [µM] | GI50 (SNB-75 CNS) [µM] | GI50 (T-47D breast) [µM] | GI50 (UO-31 renal) [µM] | GI50 (HCC-2998 colon) [µM] |
| --- | --- | --- | --- | --- | --- | --- | --- | --- | --- | --- | --- | --- | --- | --- | --- | --- |
| COc1ccccc1-c1nc[nH]c1-c1ccccc1OC | > 100 | > 100 | > 100 | > 100 | > 100 | 60.7 | > 100 | > 100 | – | – | – | – | – | – | – | – |
| CN(C)c1ccc(/C=C(\C#N)C(=O)c2ccccc2)cc1Br | – | > 100 | > 100 | > 100 | > 100 | > 100 | – | > 100 | > 100 | > 100 | – | – | – | – | – | – |
| COC(=O)C1=C(C(=O)OC)SC2(S1)C(C(=O)OC)=C(C(=O)OC)Sc1c2ssc1=O | 3.63 | 8.76 | 2.38 | 3.26 | 24.8 | 11.4 | – | 3.15 | 2.72 | 4.68 | – | – | – | – | – | – |
| CC(C)c1cccc(C(C)C)c1NC(=O)/C(Cc1nc2ccc(Cl)cc2[nH]c1=O)=N\NC(=O)C[N+](C)(C)C | > 100 | > 100 | > 100 | > 100 | > 100 | – | – | > 100 | > 100 | – | – | – | – | – | – | – |
| Clc1cccc(C=NC23CC4CC(CC(C4)C2)C3)c1Cl | > 10 | > 10 | > 10 | > 10 | > 10 | > 10 | > 10 | – | > 10 | > 10 | – | – | – | – | – | – |
| CC(=O)Nc1ccc(S(=O)(=O)Nc2cnc3ccccc3n2)cc1 | > 100 | > 100 | > 100 | > 100 | > 100 | > 100 | – | > 100 | > 100 | > 100 | – | – | – | – | – | – |
| O=C1C2Cc3ccccc3CN2C(=O)N1CN1CCCCC1 (configuration not stated) | > 100 | > 100 | > 100 | > 100 | – | – | – | > 100 | > 100 | > 100 | – | – | – | – | – | – |
| Nc1ccc(Oc2ccc(C34CC5CC(C3)CC(c3ccc(Oc6ccc(N)c(O)c6)cc3)(C5)C4)cc2)cc1O | 3.04 | 3.37 | 5.05 | 6.21 | 8.57 | – | 4.07 | 3.23 | – | 2.72 | – | – | – | – | – | – |
| CCOC1=C2N=C(C(CC)c3ccc(F)cc3)N=C2C(=O)c2ccccc21 (configuration not stated) | > 100 | > 79.8 | > 91.1 | > 89.4 | > 100 | 81.5 | – | 55.5 | > 100 | 53.5 | – | – | – | – | – | – |
| COc1cc2ccnc3c2c(c1OC)N(C)C=C3 | – | 29 | > 100 | > 100 | 79.3 | > 100 | > 100 | 33.1 | 33.8 | > 100 | – | – | – | – | – | – |
| Nc1nc(Cl)cc(OCC2(CO)CCCCC2)n1 | > 100 | > 100 | > 100 | > 100 | – | > 100 | – | – | 82.1 | > 100 | – | – | – | – | – | – |
| COC(=O)C12CCC(CC1=O)C2(C)C (configuration not stated) | > 100 | > 100 | > 100 | > 100 | > 100 | > 100 | – | > 100 | > 100 | > 100 | – | – | – | – | – | – |
| CCOC(=O)C1=C(C)NC(c2ccccc2)=C(C(=O)OCc2ccccc2)C1C#Cc1ccccc1 (configuration not stated) | > 100 | – | > 100 | – | > 100 | > 100 | > 100 | > 100 | – | > 100 | – | – | – | – | – | – |
| COC(=O)[C@@]1(Cc2ccc(OC(C)=O)cc2)Cc2cc3ccccc3n2N1 | > 100 | – | > 100 | > 100 | > 100 | – | > 100 | > 100 | – | > 100 | – | – | – | – | – | – |
| CC(C)C(N=C1CC2CCC1(C(=O)Nc1ccccc1O)C2(C)C)c1ccccc1 (configuration not stated) | > 10 | > 10 | > 10 | > 10 | > 10 | > 10 | – | > 10 | > 10 | > 10 | – | – | – | – | – | – |
| C#CCN1C(=O)CN2C(Cl)(Cl)C2(c2ccccc2)c2cc(Cl)ccc21 (configuration not stated) | – | > 100 | > 100 | > 100 | – | – | – | > 100 | > 100 | – | – | – | – | – | – | – |
| OC[C@H](O)[C@@H](OCc1ccccc1)[C@H](NCc1ccccc1)c1cccs1 | > 100 | > 100 | > 100 | > 100 | > 100 | > 100 | > 100 | 68.8 | – | > 100 | – | – | – | – | – | – |
| O=C(C#Cc1ccccc1)Nc1ccccc1CC(c1c[nH]c2ccccc12)c1c[nH]c2ccccc12 | 98.8 | – | 29.2 | 32.4 | > 100 | > 100 | – | > 100 | 50.6 | – | – | – | – | – | – | – |

| Structure (SMILES) | TGI (IGROV1 ovarian) [µM] | TGI (NCI-H460 lung) [µM] | TGI (OVCAR-3 ovarian) [µM] | TGI (SK-MEL-28 melanoma) [µM] | TGI (SK-OV-3 ovarian) [µM] | TGI (SNB-75 CNS) [µM] | TGI (T-47D breast) [µM] | TGI (UO-31 renal) [µM] | TGI (HCC-2998 colon) [µM] | TGI (U251 CNS) [µM] | GI50 (OVCAR-3 ovarian) [µM] | GI50 (SK-OV-3 ovarian) [µM] | GI50 (SNB-75 CNS) [µM] | GI50 (T-47D breast) [µM] | GI50 (UO-31 renal) [µM] | GI50 (HCC-2998 colon) [µM] |
| --- | --- | --- | --- | --- | --- | --- | --- | --- | --- | --- | --- | --- | --- | --- | --- | --- |
| COc1ccc(/C=N/NC(=O)NCCNCCO)cc1 | > 100 | > 100 | > 100 | > 100 | > 100 | > 100 | – | > 100 | – | > 100 | – | – | – | – | – | – |
| CCCN1CCN(c2ccc3nc(-c4ccc5nc(-c6ccc(OCC)cc6)[nH]c5c4)[nH]c3c2)CC1 | – | – | 3.59 | – | 3.37 | 29.6 | 6.36 | 43.9 | – | – | 1.99 | 1.33 | 0.567 | 1.41 | 14.3 | – |
| CC(C)C(C=O)C(O)(C(F)(F)F)C(F)(F)F (configuration not stated) | – | > 100 | > 100 | > 100 | > 100 | > 100 | > 100 | > 100 | > 100 | > 100 | – | – | – | – | – | – |
| O=[N+]([O-])c1cc(-c2ccc([As](=O)(O)O)cc2)ccc1[As](=O)(O)O | > 100 | > 100 | > 100 | > 100 | – | – | > 100 | > 100 | – | > 100 | – | – | – | – | – | – |
| O=C(O)Cn1cnc2c(=O)[nH]c(Nc3ccccc3)nc21 | > 100 | > 100 | > 100 | > 100 | > 100 | > 100 | > 100 | – | > 100 | > 100 | – | – | – | – | – | – |
| COc1ccc2nc3c(nc2c1)C(C)(C)C=C3c1ccc(Br)cc1 | > 100 | > 100 | – | – | – | > 100 | > 100 | – | > 100 | > 100 | – | – | – | – | – | – |
| CN(C)CCNC(=O)c1cccc2c(NC(CCCN=C(N)N)C(=O)O)c3ccccc3nc12 (configuration not stated) | 64.7 | – | > 100 | 89.2 | > 100 | 34.5 | – | > 100 | – | > 100 | – | – | – | – | – | – |
| CC(=O)O[C@H]1C(=O)[C@@]2(C)C(C(OC(=O)c3ccccc3)[C@]3(O)CC(OC(=O)C(O)C(NC(=O)c4cccc(Cl)c4)c4ccccc4)C(C)=C1C3(C)C)[C@]1(OC(C)=O)CO[C@@H]1C[C@@H]2O (some centres not stated) | > 10 | > 10 | > 10 | – | > 10 | 8.9 | – | – | 4.1 | 8.9 | – | – | – | – | – | – |
| COC(=O)c1cc(NC(=O)Cn2c3ccccc3c3ccccc32)cn1C | > 100 | > 100 | > 100 | > 100 | 89.2 | – | > 100 | > 100 | > 100 | > 100 | – | – | – | – | – | – |
| CCN(CC)CCNC(=O)C1COc2ccc(-c3cc(=O)c4ccccc4o3)cc2O1 (configuration not stated) | 63.5 | 36.2 | 41.4 | 33.4 | 47 | 42.7 | – | 29.6 | 35.4 | > 65.2 | – | – | – | – | – | – |
| CCC(/C(=N/NC(=O)C[N+](C)(C)C)c1ccccc1)C1OC(=O)c2ccccc21 (configuration not stated) | > 100 | > 100 | > 100 | > 100 | > 100 | > 100 | – | > 100 | > 100 | > 100 | – | – | – | – | – | – |
| CCCC(CCC(=O)O)(CCC(=O)O)[N+](=O)[O-] | > 100 | > 100 | – | – | > 100 | > 100 | > 100 | > 100 | – | > 100 | – | – | – | – | – | – |
| N#Cc1cc([N+](=O)[O-])ccc1NC(=O)C(=O)Nn1c(=S)[nH]c2ccccc2c1=O | > 100 | > 100 | > 100 | > 100 | > 100 | > 100 | – | > 100 | > 100 | > 100 | – | – | – | – | – | – |
| CNC(=O)/C(C#N)=C(\N)N1CCCC1 | > 100 | > 100 | > 100 | > 100 | > 100 | – | > 100 | > 100 | > 100 | > 100 | – | – | – | – | – | – |
| Cc1nc2cc3[nH]c4ccccc4c(=O)c3cc2s1 | > 100 | > 100 | > 100 | – | > 100 | > 100 | – | > 100 | > 100 | > 100 | – | – | – | – | – | – |
| Nc1nc2c(nnn2C2C=C(CO)C(O)C2O)c(=O)[nH]1 (configuration not stated) | > 100 | > 100 | > 100 | > 100 | > 100 | > 100 | – | > 100 | > 100 | > 100 | – | – | – | – | – | – |
| CCN1CC2(CO)CCC(OC)C34C5CC6C(OC)CC(O)(C5C6OC)C(O)(C(OC)C23)C14 (configuration not stated) | > 375 | > 375 | > 174 | > 375 | > 375 | > 375 | – | > 375 | > 375 | > 375 | – | – | – | – | – | – |
| COc1ccc(CNCCN2C(=O)c3ccc4c5c(ccc(c35)C2=O)C(=O)N(CCNCc2ccc(OC)c(OC)c2OC)C4=O)c(OC)c1OC | – | – | 0.353 | – | 50 | 2.09 | – | – | 0.59 | – | 0.121 | 1.67 | 0.903 | – | – | 0.167 |
